How the values were obtained:
SW1573 cells [1] = experiment: CyQUANT cell proliferation assay; type: cell-based; conditions: Homo sapiens, SW1573, 120 h
Description: (§1) Human NSCLC cell lines, SW1573 and H2122 cells, were obtained from the American Type Culture Collection. Both cell lines carry a KRAS G12C mutation and CDKN2A homozygous deletion. The cell lines were authenticated by short tandem fingerprinting in 2022 and periodically tested to be Mycoplasma-free. H2122 cells were cultured in RPMI-1640 supplemented with 10% fetal bovine serum. SW1573 cells were maintained in DMEM supplemented with 5% FBS. Both cell lines were cultured at 37 °C in a 5% CO2-humidified atmosphere and passaged when they reached 80–90% confluence. Cells were transduced with a lentivirus vector carrying cDNA coding for firefly luciferase and mCherry to generate SW1573-FmC and H2122-FmC for in vivo studies.

H2122 cells [2] = experiment: CyQUANT cell proliferation assay; type: cell-based, human; conditions: 120 h drug exposure
Description: as §1

H2122-FmC cells = experiment: CyQUANT cell proliferation assay, FmC-transduced cells; type: cell-based; conditions: Homo sapiens, 120h drug exposure
Description: as §1, with “studies. […]” for “studies.”
(§2) cell viability of firefly-luciferase and mCherry (FmC)-transduced NSCLC cells.
(§3) A, Image representing cell line transduction procedures, involving overnight exposure with a lentivirus vector expressing Firefly luciferase and mCherry. B, C, CellTiter-Glo and CyQUANT […]
(§4) Highest Single Agent model analysis in SW1573-FmC (D) and H2122-FmC (E) cell lines (96h […]
(§5) HSA synergy and antagonism

SW1573-FmC cells = experiment: as above; type: cell-based; conditions: Homo sapiens, 120h drug exposure
Description: as §1, with “studies. […]” for “studies.”
as §2, §3, §4, §5

[3] = tested on: phospho-ERK (p-ERK) in SW1573 cells; experiment: Western blot of phospho-ERK; type: cell-based, human; conditions: 48 h, 1,000 nM adagrasib and/or 1,000 nM abemaciclib
[4] = tested on: p-Rb (Ser807/811) in H2122 cells; experiment: Western blot of phospho-Rb; type: cell-based, human; conditions: 24 h exposure
Description: (§6) Cells and tissues were lysed in RIPA lysis buffer (Pierce). The protein concentration was measured using Bradford assay (BioRad). Protein lysates were separated by Mini-PROTEAN TGX gel electrophoresis (BioRad) and subsequently transferred to PVDF membranes (BioRad) for immunoblotting analysis. The membrane was blocked with 5% non-fat skim milk in Tris-buffered saline with tween. Incubation in diluted primary antibodies was conducted overnight and diluted horseradish peroxidase-conjugated secondary antibodies were subsequently applied. Immunoreactive bands were detected using ECL substrate reagent (BioRad), and the membrane was developed using a ChemiDoc XRS + system (BioRad). Primary antibodies used were against: phospho-ERK (Cell Signaling Technology (CST), 4370), ERK (CST, 9102), phospho-Rb (Ser807/811, CST, 8516), β-actin (CST, 3700), and vinculin (Millipore Sigma, 05–386).

[5] = tested on: p-Rb (Ser807/811) in SW1573 cells; experiment: Western blot of phospho-Rb; type: cell-based, human; conditions: 24 h exposure
Description: as §6

H2122 cells [6] = experiment: Flow cytometry cell cycle analysis; type: cell-based, human; conditions: 24 h drug exposure
Description: (§7) Cells were harvested, washed with PBS, and fixed in 2% paraformaldehyde. After the samples were prepared for analysis, fixed cells were resuspended in media and incubated with Vybrant DyeCycle Violet stain (ThermoFisher) for 30 min at 37 °C while protected from light. Flow cytometry was conducted using LSR II Cytometer (BD Biosciences) and analysis was done with FlowJo software and the Dean Jett-Fox algorithm.

SW1573 cells [7] = experiment: Flow cytometry cell cycle analysis; type: cell-based, human; conditions: 24 h drug exposure
Description: as §7

[8] = tested on: caspase 3/7 in SW1573 cells; experiment: Caspase 3/7-Glo cell death assay; type: cell-based, human; conditions: 48 h, 1,000 nM adagrasib, 1,000 nM abemaciclib, alone or combined
Description: (§8) For the caspase 3/7 assay, differences in luminescence signals (from control) were determined using One-Way ANOVA. Differences in BLI radiance were tested for statistical significance using the One-Way ANOVA comparison. Statistical comparisons between two groups were considered significant when the adjusted P value was below 0.05 (P < 0.05). Kaplan–Meier analysis and log-rank test were used for the analysis of animal overall survival, comparing the groups.

[9] = tested on: H2122-FmC intracranial tumors; experiment: Intracranial xenograft efficacy study (BLI, survival, body weight); type: in vivo, female nude (athymic) mice; conditions: H2122-FmC model
Description: (§9) All the animal studies were conducted in compliance with all applicable regulations and guidelines of the Institutional Animal Care and Use Committee. Six-to-eight-week-old female nude (athymic) mice were obtained from Charles River Laboratory and maintained under pathogen-free conditions, with food and water provided ad libitum. Mice were implanted intracranially with SW1573-FmC (2 × 10^5 in 2 μL serum-free media) or H2122-FmC cells (1.5 × 10^5 in 2 μL serum-free media) in the right striatum region under general anesthesia using stereotactic procedures as previously described. Animal health was monitored daily.
(§10) Animals were humanely euthanized when > 20% body weight loss or > 15% body weight loss plus neurological signs was noted. Survival data were collected for each group and analyzed using the Kaplan–Meier method. Survival duration by group was tested for statistical significance using the Gehan-Breslow-Wilcoxon test with False Discovery Rate correction. Statistical comparisons were considered significant when the adjusted P value was below 0.05 (P < 0.05).
(§11) Animals were injected intraperitoneally with luciferin (150 mg/kg, 0.01 mL/g) based on body weight and anesthetized using 1–2% isoflurane in oxygen at 1–2 L/minute. Images were acquired beginning at 7 min after luciferin injection for three time points (7, 15, and 30 min). Region of interest (ROI) analysis was completed on BLI images using AURA software (Spectral Instrument Imaging). BLI images were generated by overlaying BLI signals for each animal onto their respective white-light images for anatomic reference. Brain ROIs were generated using a fixed area circle and were placed based on the BLI signal in the relevant area, using the photographic anatomical reference images. BLI signals in images were scaled in units of radiance (photons per second per […] per steradian). Prism 9 software (Graph Pad) was used to generate relevant plots based on the in vivo quantification.
as §8

[10] = tested on: SW1573-FmC intracranial tumors; experiment: as above; type: in vivo, female nude (athymic) mice; conditions: SW1573-FmC model
Description: as §9, §10, §11, §8

[11] = tested on: SW1573-FmC intracranial tumors; experiment: Pharmacodynamic immunohistochemistry of brain tumors; type: in vivo, mice; conditions: SW1573-FmC xenograft, 3 days treatment
From the text: Formalin-fixed paraffin-embedded Sects. (7-μm thickness) were subjected to immunohistochemistry according to the methods described previously. Primary antibodies used included those directed at: p-ERK (CST), p-Rb (CST), Ki67 (Dako, MIB1) and Cleaved caspase 3 (CST, 9661). Immuno-positive cells and negative cells within tumor tissues were counted and the fraction of positive cells determined.

human p-gp = human p-gp ref 6, 34; cited from earlier work
[12] = clinically ref 23; cited from earlier work
human CYP3A4 = conditions: cited from earlier work
[13] = Pharmacokinetic study, plasma and brain concentration by LC-MS/MS; conditions: H2122-FmC and SW1573-FmC tumor-bearing mice, oral adagrasib 75 mg/kg BID or abemaciclib 50 mg/kg QD for three days, 1 h after last dose
[14] = parameters: method as in PMID 31658955; conditions: cited from earlier work
[15] = tested on: progressive BM with CDK pathway alterations; conditions: patients with progressive BM with CDK pathway alterations ref 21; cited from earlier work

CCN1CCN(Cc2ccc(Nc3ncc(F)c(-c4cc(F)c5nc(C)n(C(C)C)c5c4)n3)nc2)CC1 [abemaciclib]
IC50 (SW1573 cells [1]; 120-h drug exposure): 1 µM
IC50 (SW1573 cells [1]; 120 h drug exposure): 0.833 µM
IC50 (H2122 cells [2]): 0.626 µM
IC50 (H2122 cells [2]; Homo sapiens, NCI-H2122, 120 h): 0.6 µM
IC50 (H2122-FmC cells): 0.518 µM
IC50 (SW1573-FmC cells): 1 µM
Effect on p-ERK (immunoblot, co-treatment experiment) [3]: modestly suppressed p-ERK
Effect on p-Rb (Ser807 and Ser811, immunoblot) [4]: dose-dependent inhibition of p-Rb
Effect on p-Rb (Ser807 and Ser811, immunoblot) [5]: dose-dependent inhibition of p-Rb
Effect on cell cycle phase fractions (H2122 cells [6]): significantly increased the fraction of G1 phase and decreased the fractions of S and G2 phases
Effect on cell cycle phase fractions (SW1573 cells [7]): significantly increased the fraction of G1 phase and decreased the fractions of S and G2 phases
Caspase 3/7 activity [8]: did not significantly provoke activation of caspase 3/7
Animal survival (Kaplan–Meier) vs control ([9]; 5-week treatment, adagrasib 75 mg/kg BID, abemaciclib 50 mg/kg QD): no survival efficacy
BLI post-treatment signals vs control ([9]; day 40, no statistical significance): signals comparable to the control
Overall survival (Kaplan–Meier) ([10]; 5-week treatment, animals with pre-treatment spinal disease excluded): did not show survival benefit
Overall survival (Kaplan–Meier), all animals included ([10]; comparison of the groups, including animals with spinal disease): No statistical significance
BLI signal intensity (radiance) vs vehicle ([10]; day 40, adagrasib 75 mg/kg BID, abemaciclib 50 mg/kg QD, animals with pre-treatment spinal disease excluded): lower average BLI compared to the vehicle, without statistical significance
Cleaved caspase 3 (C-Cas3) positivity in tumor (IHC) [11]: very few C-Cas3 positive cells
p-ERK-positive cells in tumor (IHC) [11]: decreased p-ERK-positive cells
p-Rb-positive cells in tumor (IHC) [11]: modestly decreased P-Rb immunopositivity
P-gp-mediated efflux interaction (human p-gp): substrates and inhibitors of human p-gp-mediated efflux
CSF versus plasma concentrations [12]: comparable concentrations in the CSF and plasma
CYP3A4 interaction (human CYP3A4): substrate of CYP3A4
Concentration in brain [13]: 200 to 300 ng/mL
Concentration in plasma [13]: 290 to 400 ng/mL

C=C(F)C(=O)N1CCN(c2nc(OC[C@@H]3CCCN3C)nc3c2CCN(c2cccc4cccc(Cl)c24)C3)C[C@@H]1CC#N [adagrasib]
Cleaved caspase 3 (C-Cas3) positivity in tumor (IHC) [11]: trend of increased positivity
p-ERK-positive cells in tumor (IHC) [11]: decrease of p-ERK-positive cells
p-Rb-positive cells in tumor (IHC) [11]: decreased p-Rb-positive cells
Half-life [14]: 24 h
P-gp-mediated efflux interaction (human p-gp): substrates and inhibitors of human p-gp-mediated efflux
CYP3A4 interaction (human CYP3A4): time-dependent inhibition of human CYP3A4

CC(=O)c1c(C)c2cnc(Nc3ccc(N4CCNCC4)cn3)nc2n(C2CCCC2)c1=O [palbociclib]
Intracranial activity in patients [15]: demonstrated intracranial activity

Reference: article PMC12046717 (Acta Neuropathologica Communications, 2025)
